Experimental data published in patent US5043328A, “Formulations containing unsaturated fatty acids for the synthesis of prostaglandins and hydroxy-fatty acids in biological systems” (priority 1986, dated 1991).
Where two headings read alike, the source gives them in different places.

What was measured:
[1] = target: T1, enzyme (from seminal vesicles of sheep) (Ovis aries, UniProt P05979); settings: for relative total prostaglandin f: seminal vesicle enzyme, 10 min, pH 8
T1 sequence (P05979 25-600): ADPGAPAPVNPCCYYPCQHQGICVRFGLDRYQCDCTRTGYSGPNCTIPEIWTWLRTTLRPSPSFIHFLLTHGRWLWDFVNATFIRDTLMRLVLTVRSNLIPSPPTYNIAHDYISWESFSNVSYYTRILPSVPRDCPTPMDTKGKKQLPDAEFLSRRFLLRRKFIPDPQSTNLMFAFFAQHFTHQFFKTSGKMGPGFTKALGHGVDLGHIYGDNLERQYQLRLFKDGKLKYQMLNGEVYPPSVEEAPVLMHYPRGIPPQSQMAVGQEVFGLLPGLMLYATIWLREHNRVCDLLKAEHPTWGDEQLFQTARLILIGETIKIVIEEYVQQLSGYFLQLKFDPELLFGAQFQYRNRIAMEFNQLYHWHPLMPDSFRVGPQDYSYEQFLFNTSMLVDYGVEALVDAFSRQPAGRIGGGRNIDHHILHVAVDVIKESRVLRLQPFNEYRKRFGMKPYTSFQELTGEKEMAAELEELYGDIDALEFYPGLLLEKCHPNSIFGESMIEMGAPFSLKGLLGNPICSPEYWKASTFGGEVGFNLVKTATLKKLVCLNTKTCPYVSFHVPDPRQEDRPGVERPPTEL
Description: Method 2: Prostaglandin Synthesis
0.3 ml of 0.03M potassium phosphate buffer of pH=8.0 contains 0.5 mg of enzyme (from seminal vesicles of sheep) (Biochemistry 10 (1971) 2372) or homogenate of the inner kidney medulla (Life Sciences 26 (1980) 765), 2.75 μg of ^14 C-arachidonic acid (0.5 μCi) and 0.5 mg of stimulator, and, if appropriate, 0.5 mg of stabilizer substance (see Table 1). After 10 minutes' incubation at 37° C., the reaction is stopped with 0.05 ml of 1.2M citric acid and the mixture is extracted with twice 0.5 ml of ethyl acetate, the combined extracts are freed of solvent, and the residue is dissolved in 0.2 ml of methanol, diluted 1:1 with water and separated by HPLC (nucleosil C-18 column, 125×4.6 mm, from Bischoff, Leonberg, Germany, solvent 300 ml of acetonitrile, 700 ml of water and 1 ml of glacial acetic acid and after 30 minutes pure methanol). The separation of the radioactive fractions is followed by a monitor (LB 504 from Berthold, Wildbad, Germany). The products formed, such as 6-keto-prostaglandin F2alpha, prostaglandin E2, prostaglandin F2alpha and prostaglandin D2, are separated under these conditions.
The prostaglandins PGE2, PGF2 alpha and PGD2 as products from arachidonic acid where quantified by means of method 2, and the sum was related as "total prostaglandin" to 100%. The quantity of "total prostaglandin" formed without the addition of a stimulator was set at f=1; the quantity formed after stimulation was related thereto. f=2 or f=3 therefore means twice or three times the stimulation under the conditions of method 2. The stability of the sample was investigated by means of method 1 (right-hand column). […] Values greater than 25-28% therefore represent a stabilization, and values smaller than 25-28% represent a destabilization. Example No. 1 was carried out without a stimulator. […] The substances test with respect to stabilization (see Method 1 for quantities) were: A) aqueous solution without stabilizer addition, B) ethanolic solution without further addition, C) pyridine solution, D) with rutin, predissolved in dimethyl sulfoxide, dimethyl sulfoxide then stripped off, E) like B) with lecithin, ethanol stripped off, F) like A) with cytochrome c from horse heart (from Boehringer, Mannheim, Germany), G) like A) with methemoglobin (human) (from Sigman, Munich, Germany), H) like A) with bovine serum albumin (from Calbiochem, Frankfurt, Germany), J) like A) or B), but solvent stripped off, K) like J) with cytochrome c, L) like J) with hemoglobin (human) (from Behringwerke, Marburg, Germany), and M) like J) with human serum albumin (from Behringwerke, Marburg, Germany).

[2] = for Stability (% of remaining arachidonic acid by Method 1): 24 h 37° C.
Description: Method 1: Investigation of the Stability of Unsaturated Fatty Acids in the Formulations
The stabilizing action of substances on polyunsaturated fatty acids was investigated as follows:
Test A for Water-Soluble Substances:
0.125 mg of unsaturated fatty acid or Na salt (see tables) (sodium arachidonate, from Sigma, Munich, Germany) is dissolved in 0.05 ml of water. 0.2 ml of aqueous solution which contains 2 mg of stabilizer and can additionally contain 2 mg of stimulator is mixed in (cf. Table 1), 0.1 ml is then taken out immediately, extracted and analysed (see below). Further processing according to modification 1 or 2.
Modification 1 for Aqueous Solutions
After 24 hours incubation at 37° C., 0.1 ml is again taken, extracted and analysed (see below).
Modification 2 for Solid Mixtures (Lyophilisates)
The test solution is lyophilized, the lyophilisate is incubated for 24 hours at 37° C. and then dissolved again in the previous quantity of water, and 0.1 ml is taken, extracted and analysed (see below).
Test B for Water-Insoluble Substances:
0.125 mg of unsaturated fatty acid (arachidonic acid, 5,8,11,14,17-eicosapentaenoic acid or 8,11,14-eicosatrienoic acid, from Sigma, Munich) is dissolved in 0.05 ml of ethanol or dimethyl sulfoxide. 0.2 ml of ethanol (or dimethyl sulfoxide) which contains 2 mg of stabilizer and can additionally contain 2 mg of the stimulator (cf. Table 1) is added thereto, and 0.1 ml is taken immediately and, as below, extracted and analysed. Further treatment according to modification 1 or 2.
Modification 1 for Solutions
After 24 hours' incubation at 37° C., 0.1 ml is again taken, mixed with 0.1 ml of water, extracted and analysed.
Modification 2 for Solid Mixtures
The remaining solution is freed of solvent, incubated for 24 hours at 37° C. and then dissolved again in 0.15 ml of solvent, and 0.1 ml is taken, mixed with 0.1 ml of water, extracted and analysed.
0.05 ml of 1.2M aqueous citric acid solution is added to the samples obtained, and the samples are extracted with twice 0.5 ml of ethyl acetate, the ethyl acetate is removed from the combined extracts and the residue is dissolved in 0.8 ml of methanol and analysed by means of high-pressure liquid chromatography (HPLC) (Rad Pak C-18 column, 100×8 mm, from Waters, Konigstein, Germany, 1.5 ml/minute, solvent 800 ml of methanol, 200 ml of water and 0.1 ml of glacial acetic acid). The separation is monitored with a commercially available UV detector at 206 nm.
The prostaglandins PGE2, PGF2 alpha and PGD2 as products from arachidonic acid where quantified by means of method 2, and the sum was related as "total prostaglandin" to 100%. The quantity of "total prostaglandin" formed without the addition of a stimulator was set at f=1; the quantity formed after stimulation was related thereto. f=2 or f=3 therefore means twice or three times the stimulation under the conditions of method 2. The stability of the sample was investigated by means of method 1 (right-hand column). […] Values greater than 25-28% therefore represent a stabilization, and values smaller than 25-28% represent a destabilization. Example No. 1 was carried out without a stimulator.

[3] = Table 2, share of total prostaglandin
[4] = Table 1, share of total prostaglandin (=100%)
[5] = A) aqueous solution without stabilizer addition
[6] = B) ethanolic solution without further addition
[7] = H) like A) with bovine serum albumin
[8] = M) like J) with human serum albumin
[9] = D) with rutin, predissolved in dimethyl sulfoxide, dimethyl sulfoxide then stripped off
[10] = G) like A) with methemoglobin (human)
[11] = J) like A) or B), but solvent stripped off

O=c1c(O)c(-c2ccc(O)cc2)oc2cc(O)cc(O)c12 [Example 56, Kaempferol]
PGD2 % [1, 3]: 13%
PGE2 % [1, 3]: 76%
PGF2alpha % [1, 3]: 11%
relative total prostaglandin f [1]: 0.5
Stabilization (% remaining unsaturated fatty acid by Method 1) ([2]; 1440 min): 98%

O=C1C[C@@H](c2ccc(O)cc2)Oc2cc(O)cc(O)c21 [Example 55, Naringenin]
PGD2 % [1, 3]: 20%
PGE2 % [1, 3]: 80%
PGF2alpha % [1, 3]: 0%
relative total prostaglandin f [1]: 1.5
Stabilization (% remaining unsaturated fatty acid by Method 1) ([2]; 1440 min): 96%

C[C@@H]1O[C@@H](O[C@H]2[C@H](Oc3cc(O)c4c(c3)O[C@H](c3ccc(O)cc3)CC4=O)O[C@H](CO)[C@@H](O)[C@@H]2O)[C@H](O)[C@H](O)[C@H]1O [Example 54, Naringin]
PGD2 % [1, 3]: 15%
PGE2 % [1, 3]: 83%
PGF2alpha % [1, 3]: 2%
relative total prostaglandin f [1]: 2
Stabilization (% remaining unsaturated fatty acid by Method 1) ([2]; 1440 min): 96%

Oc1cc(O)c2c(c1)O[C@H](c1ccc(O)c(O)c1)[C@H](O)C2 [Example 59, Epicatechin]
PGD2 % [1, 3]: 12%
PGE2 % [1, 3]: 71%
PGF2alpha % [1, 3]: 17%
Stabilization (% remaining unsaturated fatty acid by Method 1) ([2]; 1440 min): 89%

NCCc1ccc(O)c(O)c1 [Example 10]
PGD2 % [1, 4]: 13%
PGE2 % [1, 4]: 52%
PGF2alpha % [1, 4]: 35%
Stability (% of remaining arachidonic acid by Method 1) [2, 5]: 17%
Stability (% of remaining arachidonic acid by Method 1) [2, 6]: 95%
Stability (% of remaining arachidonic acid by Method 1) ([2]; C) pyridine solution): 9%
Stability (% of remaining arachidonic acid by Method 1) [2, 7]: 100%
Stability (% of remaining arachidonic acid by Method 1) ([2]; K) like J) with cytochrome c): 98%
Stability (% of remaining arachidonic acid by Method 1) [2, 8]: 100%

N[C@@H](CS)C(=O)O [Example 33, L-cysteine]
PGD2 % [1, 4]: 27%
PGE2 % [1, 4]: 56%
PGF2alpha % [1, 4]: 17%
Stability (% remaining fatty acid by Method 1) ([2]; 1440 min): 94%

O=C(O)C=Cc1ccc(O)c(O)c1 [Example 17]
PGD2 % [1, 4]: 17%
PGE2 % [1, 4]: 70%
PGF2alpha % [1, 4]: 13%
relative total prostaglandin f [1]: 5.7
Stability (% of remaining arachidonic acid by Method 1) [2, 5]: 19%
Stability (% of remaining arachidonic acid by Method 1) [2, 9]: 99%
Stability (% of remaining arachidonic acid by Method 1) [2, 10]: 95%
Stability (% of remaining arachidonic acid by Method 1) [2, 7]: 99%
Stability (% of remaining arachidonic acid by Method 1) [2, 11]: 16%
Stability (% of remaining arachidonic acid by Method 1) [2, 8]: 98%

NCCc1c[nH]c2ccccc12 [Example 23]
PGD2 % [1, 4]: 16%
PGE2 % [1, 4]: 81%
PGF2alpha % [1, 4]: 3%
Stability (% of remaining arachidonic acid by Method 1) [2, 5]: 20%
Stability (% of remaining arachidonic acid by Method 1) [2, 9]: 100%
Stability (% of remaining arachidonic acid by Method 1) ([2]; F) like A) with cytochrome c from horse heart): 98%
Stability (% of remaining arachidonic acid by Method 1) [2, 10]: 97%
Stability (% of remaining arachidonic acid by Method 1) [2, 7]: 100%

NC(Cc1ccc(O)cc1)C(=O)O (stereo not shown) [Example 6]
PGD2 % [1, 4]: 17%
PGE2 % [1, 4]: 81%
PGF2alpha % [1, 4]: 2%
Stability (% of remaining arachidonic acid by Method 1) [2, 5]: 91%
Stability (% of remaining arachidonic acid by Method 1) [2, 6]: 100%
Stability (% of remaining arachidonic acid by Method 1) ([2]; C) pyridine solution): 67%
Stability (% of remaining arachidonic acid by Method 1) [2, 11]: 98%
Stability (% of remaining arachidonic acid by Method 1) ([2]; K) like J) with cytochrome c): 100%
Stability (% of remaining arachidonic acid by Method 1) [2, 8]: 100%

COC1=C(OC)C(=O)C(C/C=C(\C)CC/C=C(\C)CC/C=C(\C)CC/C=C(\C)CC/C=C(\C)CC/C=C(\C)CC/C=C(\C)CC/C=C(\C)CC/C=C(\C)CCC=C(C)C)=C(C)C1=O [Example 47, Vitamin Q10, reference compound]
PGD2 % [1, 3]: 14%
PGE2 % [1, 3]: 8%
PGF2alpha % [1, 3]: 78%
relative total prostaglandin f [1]: 0.8
Stabilization (% remaining unsaturated fatty acid by Method 1) ([2]; 1440 min): 8%
